Assay results: PMC10104807, “Modulation of tau tubulin kinases (TTBK1 and TTBK2) impacts ciliogenesis” (Scientific Reports, 2023)

Assays:
PRKX = target: T1, PRKX (Homo sapiens, UniProt P51817); assay: DiscoverX scanMAX binding assay
T1 construct: purchased Eurofins (radiometric) / Eurofins DiscoverX scanMAX / Reaction Biology / SignalChem
Summary of the method: (§1)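 Single-dose (1 µM) binding screen; 403 WT human kinase panel; readout PoC, lower value = stronger displacement.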

PIKfyve = target: T2, PIKfyve (Homo sapiens, UniProt Q9Y2I7); assay: DiscoverX scanMAX binding assay; conditions: 1 μM
T2 construct: purchased Eurofins (radiometric) / Eurofins DiscoverX scanMAX / Reaction Biology / SignalChem
Summary of the method: as §1

MAP3K2 = target: T3, MAP3K2 (Homo sapiens, UniProt Q9Y2U5); assay: DiscoverX scanMAX binding assay
T3 construct: purchased Eurofins (radiometric) / Eurofins DiscoverX scanMAX / Reaction Biology / SignalChem
Summary of the method: as §1

[1] = target: T4, JAK2(JH1domain-catalytic) (Homo sapiens, UniProt O60674); assay: DiscoverX scanMAX binding assay
T4 construct: JAK2(JH1domain-catalytic); purchased Eurofins (radiometric) / Eurofins DiscoverX scanMAX / Reaction Biology / SignalChem
Summary of the method: as §1

MAP4K5 = target: T5, MAP4K5 (Homo sapiens, UniProt Q9Y4K4); assay: DiscoverX scanMAX binding assay; conditions: 1 μM
T5 construct: purchased Eurofins
Summary of the method: as §1

PAK4 = target: T6, PAK4 (Homo sapiens, UniProt O96013); assay: DiscoverX scanMAX binding assay
T6 construct: purchased Eurofins (radiometric) / Eurofins DiscoverX scanMAX / Reaction Biology / SignalChem
Summary of the method: as §1

MEK4 = target: T7, MEK4 (Homo sapiens, UniProt P45985); assay: DiscoverX scanMAX binding assay; conditions: 1 μM
T7 construct: purchased Eurofins (radiometric) / Eurofins DiscoverX scanMAX / Reaction Biology / SignalChem
Summary of the method: as §1

MYLK4 = target: T8, MYLK4 (Homo sapiens, UniProt Q86YV6); assay: DiscoverX scanMAX binding assay; conditions: 1 μM
T8 construct: purchased Eurofins (radiometric) / Eurofins DiscoverX scanMAX / Reaction Biology / SignalChem
Summary of the method: as §1

MAP3K3 = target: T9, MAP3K3 (Homo sapiens, UniProt Q99759); assay: DiscoverX scanMAX binding assay
T9 construct: purchased Eurofins (radiometric) / Eurofins DiscoverX scanMAX / Reaction Biology / SignalChem
Summary of the method: as §1

RIPK5 = target: T10, RIPK5 (Homo sapiens, UniProt Q6XUX3); assay: DiscoverX scanMAX binding assay; conditions: 1 μM
T10 construct: purchased Eurofins (radiometric) / Eurofins DiscoverX scanMAX / Reaction Biology / SignalChem
Summary of the method: as §1

CHEK2 = target: T11, CHEK2 (Homo sapiens, UniProt O96017); assay: DiscoverX scanMAX binding assay; conditions: 1 μM
T11 construct: purchased Eurofins (radiometric) / Eurofins DiscoverX scanMAX / Reaction Biology / SignalChem
Summary of the method: as §1

CSNK1D = target: T12, CSNK1D (Homo sapiens, UniProt P48730); assay: DiscoverX scanMAX binding assay; conditions: 1 μM
T12 construct: purchased Eurofins (radiometric) / Eurofins DiscoverX scanMAX / Reaction Biology / SignalChem
Summary of the method: as §1

PRKCE = target: T13, PRKCE (Homo sapiens, UniProt Q02156); assay: DiscoverX scanMAX binding assay; conditions: 1 μM
T13 construct: purchased Eurofins (radiometric) / Eurofins DiscoverX scanMAX / Reaction Biology / SignalChem
Summary of the method: as §1

CSNK1E = target: T14, CSNK1E (Homo sapiens, UniProt P49674); assay: DiscoverX scanMAX binding assay; conditions: 1 μM
T14 construct: purchased Eurofins (radiometric) / Eurofins DiscoverX scanMAX / Reaction Biology / SignalChem
Summary of the method: as §1

CDK11 = target: T15, CDK11 (Homo sapiens, UniProt Q9BWU1); assay: DiscoverX scanMAX binding assay; conditions: 1 μM
T15 construct: purchased Eurofins (radiometric) / Eurofins DiscoverX scanMAX / Reaction Biology / SignalChem
Summary of the method: as §1

CDK8 = target: T16, CDK8 (Homo sapiens, UniProt P49336); assay: DiscoverX scanMAX binding assay; conditions: 1 μM
T16 construct: purchased Eurofins (radiometric) / Eurofins DiscoverX scanMAX / Reaction Biology / SignalChem
Summary of the method: as §1

TTBK1 kinase domain = target: T17, TTBK1 kinase domain (Homo sapiens, UniProt Q5TCY1); assay: Thermal shift assay; format: binding; conditions: kinase domain 2 µM, inhibitor 10 µM
T17 construct: Either the TTBK1 or TTBK2 kinase domain at 2 µM
Method: A Real-Time PCR Mx3005p machine (Stratagene) was used to measure the fluorescence spectrum. The Tm shift assays and data evaluation for melting temperatures were performed according to the previously described protocol.

AURKB = target: T18, AURKB (Homo sapiens, UniProt Q96GD4); assay: DiscoverX scanMAX binding assay; conditions: 1 μM
T18 construct: purchased Eurofins (radiometric) / Eurofins DiscoverX scanMAX / Reaction Biology / SignalChem
Summary of the method: as §1

PFCDPK1(P.falciparum) = target: T19, PFCDPK1(P.falciparum) (Plasmodium falciparum, UniProt P62344); assay: DiscoverX scanMAX binding assay; conditions: 1 μM
T19 construct: purchased Eurofins (radiometric) / Eurofins DiscoverX scanMAX / Reaction Biology / SignalChem
Summary of the method: as §1

NIK = target: T20, NIK (Homo sapiens, UniProt Q99558); assay: DiscoverX scanMAX binding assay; conditions: 1 μM
T20 construct: purchased Eurofins (radiometric) / Eurofins DiscoverX scanMAX / Reaction Biology / SignalChem
Summary of the method: as §1

GRK2 = target: T21, GRK2 (Homo sapiens, UniProt P25098); assay: DiscoverX scanMAX binding assay; conditions: 1 μM
T21 construct: purchased Eurofins (radiometric) / Eurofins DiscoverX scanMAX / Reaction Biology / SignalChem
Summary of the method: as §1

CDC2L1 = target: T22, CDC2L1 (Homo sapiens, UniProt P21127); assay: DiscoverX scanMAX binding assay; conditions: 1 μM
T22 construct: purchased Eurofins (radiometric) / Eurofins DiscoverX scanMAX / Reaction Biology / SignalChem
Summary of the method: as §1

[2] = target: T23, TYK2(JH1domain-catalytic) (Homo sapiens, UniProt P29597); assay: DiscoverX scanMAX binding assay; conditions: 1 μM
T23 construct: TYK2(JH1domain-catalytic); purchased Eurofins (radiometric) / Eurofins DiscoverX scanMAX / Reaction Biology / SignalChem
Summary of the method: as §1

TSSK3 = target: T24, TSSK3 (Homo sapiens, UniProt Q96PN8); assay: DiscoverX scanMAX binding assay; conditions: 1 μM
T24 construct: purchased Eurofins
T24 sequence (Q96PN8 1-268): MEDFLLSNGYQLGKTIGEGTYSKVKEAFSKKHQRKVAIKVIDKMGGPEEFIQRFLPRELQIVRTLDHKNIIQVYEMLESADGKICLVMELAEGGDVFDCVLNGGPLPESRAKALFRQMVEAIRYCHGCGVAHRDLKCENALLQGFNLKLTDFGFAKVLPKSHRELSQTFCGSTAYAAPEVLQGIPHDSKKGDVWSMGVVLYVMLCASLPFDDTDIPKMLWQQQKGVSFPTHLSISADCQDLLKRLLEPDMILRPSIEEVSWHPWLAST
Summary of the method: as §1

HIPK1 = target: T25, HIPK1 (Homo sapiens, UniProt Q86Z02); assay: DiscoverX scanMAX binding assay; conditions: 1 μM
T25 construct: purchased Eurofins (radiometric) / Eurofins DiscoverX scanMAX / Reaction Biology / SignalChem
Summary of the method: as §1

BRAF(V600E) = target: T26, BRAF(V600E) (Homo sapiens, UniProt P15056, V600E); assay: DiscoverX scanMAX binding assay; conditions: 1 μM
T26 construct: purchased Eurofins (radiometric) / Eurofins DiscoverX scanMAX / Reaction Biology / SignalChem

SNARK = target: T27, SNARK (Homo sapiens, UniProt Q9H093); assay: DiscoverX scanMAX binding assay; conditions: 1 μM
T27 construct: purchased Eurofins (radiometric) / Eurofins DiscoverX scanMAX / Reaction Biology / SignalChem
Summary of the method: as §1

PRKD2 = target: T28, PRKD2 (Homo sapiens, UniProt Q9BZL6); assay: DiscoverX scanMAX binding assay; conditions: 1 μM
T28 construct: purchased Eurofins (radiometric) / Eurofins DiscoverX scanMAX / Reaction Biology / SignalChem
Summary of the method: as §1

[3] = target: T29, JAK3(JH1domain-catalytic) (Homo sapiens, UniProt P52333); assay: DiscoverX scanMAX binding assay; conditions: 1 μM
T29 construct: JAK3(JH1domain-catalytic); purchased Eurofins (radiometric) / Eurofins DiscoverX scanMAX / Reaction Biology / SignalChem
Summary of the method: as §1

CDC2L2 = target: T30, CDC2L2 (Homo sapiens, UniProt Q9UQ88); assay: DiscoverX scanMAX binding assay; conditions: 1 μM
T30 construct: purchased Eurofins (radiometric) / Eurofins DiscoverX scanMAX / Reaction Biology / SignalChem
Summary of the method: as §1

T2 sequence (Q9Y2I7 whole entry): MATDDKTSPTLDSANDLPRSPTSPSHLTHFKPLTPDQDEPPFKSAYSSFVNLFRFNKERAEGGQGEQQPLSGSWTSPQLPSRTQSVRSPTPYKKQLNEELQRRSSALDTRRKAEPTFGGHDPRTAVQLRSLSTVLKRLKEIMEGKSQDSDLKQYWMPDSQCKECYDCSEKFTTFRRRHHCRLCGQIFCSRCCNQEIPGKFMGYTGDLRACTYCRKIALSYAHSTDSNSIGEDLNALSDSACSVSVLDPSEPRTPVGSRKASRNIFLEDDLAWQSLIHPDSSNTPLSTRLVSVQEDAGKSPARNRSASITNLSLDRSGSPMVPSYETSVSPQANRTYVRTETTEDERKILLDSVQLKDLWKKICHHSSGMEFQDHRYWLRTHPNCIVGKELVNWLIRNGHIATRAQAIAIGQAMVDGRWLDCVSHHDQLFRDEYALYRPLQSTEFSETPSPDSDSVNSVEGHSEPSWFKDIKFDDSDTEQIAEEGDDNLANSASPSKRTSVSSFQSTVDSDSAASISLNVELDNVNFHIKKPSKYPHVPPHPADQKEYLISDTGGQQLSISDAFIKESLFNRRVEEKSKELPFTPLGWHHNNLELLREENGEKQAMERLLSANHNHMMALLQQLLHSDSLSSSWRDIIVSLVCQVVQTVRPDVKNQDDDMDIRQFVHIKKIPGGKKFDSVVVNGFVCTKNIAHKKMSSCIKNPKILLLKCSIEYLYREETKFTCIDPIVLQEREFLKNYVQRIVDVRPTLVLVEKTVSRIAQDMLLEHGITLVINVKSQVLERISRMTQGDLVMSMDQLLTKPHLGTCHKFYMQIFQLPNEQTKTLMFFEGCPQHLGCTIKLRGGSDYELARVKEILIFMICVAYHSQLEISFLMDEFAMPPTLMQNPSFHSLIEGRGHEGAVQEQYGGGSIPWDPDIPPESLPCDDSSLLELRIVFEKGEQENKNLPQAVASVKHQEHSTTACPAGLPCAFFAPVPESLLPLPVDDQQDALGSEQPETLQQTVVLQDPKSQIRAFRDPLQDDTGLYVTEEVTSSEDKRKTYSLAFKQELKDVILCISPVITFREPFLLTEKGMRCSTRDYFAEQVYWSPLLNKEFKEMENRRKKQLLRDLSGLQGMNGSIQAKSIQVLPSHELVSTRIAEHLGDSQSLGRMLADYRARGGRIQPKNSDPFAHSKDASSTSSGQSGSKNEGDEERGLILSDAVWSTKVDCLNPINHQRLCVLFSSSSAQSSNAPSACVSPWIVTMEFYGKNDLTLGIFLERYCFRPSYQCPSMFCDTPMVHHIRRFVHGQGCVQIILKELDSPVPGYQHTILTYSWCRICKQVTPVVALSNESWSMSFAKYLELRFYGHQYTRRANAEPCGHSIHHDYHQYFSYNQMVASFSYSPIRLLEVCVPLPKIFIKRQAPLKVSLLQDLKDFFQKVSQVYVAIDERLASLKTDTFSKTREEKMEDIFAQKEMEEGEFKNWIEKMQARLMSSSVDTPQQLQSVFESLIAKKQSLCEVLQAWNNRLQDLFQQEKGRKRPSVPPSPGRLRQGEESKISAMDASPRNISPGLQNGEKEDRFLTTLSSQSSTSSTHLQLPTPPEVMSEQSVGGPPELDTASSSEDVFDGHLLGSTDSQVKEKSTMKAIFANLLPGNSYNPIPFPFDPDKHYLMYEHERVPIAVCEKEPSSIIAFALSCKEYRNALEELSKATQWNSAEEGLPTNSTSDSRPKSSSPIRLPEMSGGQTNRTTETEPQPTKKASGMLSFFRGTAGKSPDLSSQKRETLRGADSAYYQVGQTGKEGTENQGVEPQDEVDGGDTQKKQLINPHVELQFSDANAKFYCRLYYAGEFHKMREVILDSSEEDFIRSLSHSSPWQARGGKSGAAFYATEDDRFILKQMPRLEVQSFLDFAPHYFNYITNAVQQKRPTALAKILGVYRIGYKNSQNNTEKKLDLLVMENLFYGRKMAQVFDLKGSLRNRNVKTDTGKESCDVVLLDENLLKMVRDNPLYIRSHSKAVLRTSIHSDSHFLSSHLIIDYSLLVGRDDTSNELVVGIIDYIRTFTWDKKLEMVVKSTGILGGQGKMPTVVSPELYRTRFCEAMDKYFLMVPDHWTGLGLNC
T4 sequence (O60674 849-1124 limits assumed): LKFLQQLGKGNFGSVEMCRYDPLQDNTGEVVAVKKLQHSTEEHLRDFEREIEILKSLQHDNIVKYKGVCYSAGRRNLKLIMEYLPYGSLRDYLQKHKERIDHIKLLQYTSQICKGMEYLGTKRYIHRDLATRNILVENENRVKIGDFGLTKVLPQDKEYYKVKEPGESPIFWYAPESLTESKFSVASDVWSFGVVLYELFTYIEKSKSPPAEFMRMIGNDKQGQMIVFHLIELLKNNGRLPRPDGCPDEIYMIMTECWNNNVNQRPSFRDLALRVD
T13 sequence (Q02156 whole entry): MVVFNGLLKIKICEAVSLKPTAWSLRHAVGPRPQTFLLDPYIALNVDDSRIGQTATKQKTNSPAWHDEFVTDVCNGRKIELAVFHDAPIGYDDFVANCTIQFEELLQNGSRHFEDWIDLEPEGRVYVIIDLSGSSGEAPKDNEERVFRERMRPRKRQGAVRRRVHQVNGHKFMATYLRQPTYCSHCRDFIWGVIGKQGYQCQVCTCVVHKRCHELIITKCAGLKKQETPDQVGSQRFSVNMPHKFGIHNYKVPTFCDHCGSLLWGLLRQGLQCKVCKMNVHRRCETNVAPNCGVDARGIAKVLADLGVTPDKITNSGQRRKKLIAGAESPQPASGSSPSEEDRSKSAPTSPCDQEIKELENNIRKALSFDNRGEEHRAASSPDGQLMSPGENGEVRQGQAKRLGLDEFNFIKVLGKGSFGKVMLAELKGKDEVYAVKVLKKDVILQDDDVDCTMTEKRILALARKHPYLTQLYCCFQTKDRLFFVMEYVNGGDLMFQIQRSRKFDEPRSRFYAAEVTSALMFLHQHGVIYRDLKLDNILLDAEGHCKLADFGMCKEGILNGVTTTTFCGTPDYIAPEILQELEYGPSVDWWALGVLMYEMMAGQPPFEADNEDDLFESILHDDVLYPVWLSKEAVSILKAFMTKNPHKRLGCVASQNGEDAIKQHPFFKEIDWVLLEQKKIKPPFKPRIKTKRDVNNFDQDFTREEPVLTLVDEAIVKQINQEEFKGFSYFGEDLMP
T9 sequence (Q99759 whole entry): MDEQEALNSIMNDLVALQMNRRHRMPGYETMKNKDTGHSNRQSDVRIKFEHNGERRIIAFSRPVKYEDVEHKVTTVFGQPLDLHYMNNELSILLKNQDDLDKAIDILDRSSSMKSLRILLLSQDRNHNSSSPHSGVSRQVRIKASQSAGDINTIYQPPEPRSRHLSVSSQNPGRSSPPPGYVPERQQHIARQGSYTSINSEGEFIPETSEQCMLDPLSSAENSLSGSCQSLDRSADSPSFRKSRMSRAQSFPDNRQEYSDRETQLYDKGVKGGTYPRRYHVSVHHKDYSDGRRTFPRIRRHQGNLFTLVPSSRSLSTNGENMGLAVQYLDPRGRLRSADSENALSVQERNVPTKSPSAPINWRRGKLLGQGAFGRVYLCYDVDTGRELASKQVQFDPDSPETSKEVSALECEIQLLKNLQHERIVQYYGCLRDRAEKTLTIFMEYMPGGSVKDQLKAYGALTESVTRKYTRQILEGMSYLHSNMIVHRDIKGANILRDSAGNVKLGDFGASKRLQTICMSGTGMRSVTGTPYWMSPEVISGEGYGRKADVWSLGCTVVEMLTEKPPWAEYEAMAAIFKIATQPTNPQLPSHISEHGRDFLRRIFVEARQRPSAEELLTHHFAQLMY
T3 sequence (Q9Y2U5 whole entry): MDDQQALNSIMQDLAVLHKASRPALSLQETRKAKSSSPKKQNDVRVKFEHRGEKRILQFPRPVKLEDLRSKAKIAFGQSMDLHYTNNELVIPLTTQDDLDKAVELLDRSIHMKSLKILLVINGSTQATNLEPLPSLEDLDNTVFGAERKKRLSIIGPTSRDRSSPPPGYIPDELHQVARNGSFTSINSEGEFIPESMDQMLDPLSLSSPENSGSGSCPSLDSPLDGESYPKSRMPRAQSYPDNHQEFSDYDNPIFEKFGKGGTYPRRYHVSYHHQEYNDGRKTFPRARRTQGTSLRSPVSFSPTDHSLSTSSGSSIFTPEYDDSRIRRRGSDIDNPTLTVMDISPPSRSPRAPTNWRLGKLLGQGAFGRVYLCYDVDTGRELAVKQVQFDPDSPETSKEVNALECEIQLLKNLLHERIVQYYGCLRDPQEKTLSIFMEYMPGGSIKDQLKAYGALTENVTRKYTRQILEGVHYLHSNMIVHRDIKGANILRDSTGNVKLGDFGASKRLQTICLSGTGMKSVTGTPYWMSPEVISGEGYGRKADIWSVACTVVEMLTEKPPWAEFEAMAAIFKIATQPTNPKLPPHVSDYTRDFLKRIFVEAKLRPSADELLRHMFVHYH
T8 sequence (Q86YV6 whole entry): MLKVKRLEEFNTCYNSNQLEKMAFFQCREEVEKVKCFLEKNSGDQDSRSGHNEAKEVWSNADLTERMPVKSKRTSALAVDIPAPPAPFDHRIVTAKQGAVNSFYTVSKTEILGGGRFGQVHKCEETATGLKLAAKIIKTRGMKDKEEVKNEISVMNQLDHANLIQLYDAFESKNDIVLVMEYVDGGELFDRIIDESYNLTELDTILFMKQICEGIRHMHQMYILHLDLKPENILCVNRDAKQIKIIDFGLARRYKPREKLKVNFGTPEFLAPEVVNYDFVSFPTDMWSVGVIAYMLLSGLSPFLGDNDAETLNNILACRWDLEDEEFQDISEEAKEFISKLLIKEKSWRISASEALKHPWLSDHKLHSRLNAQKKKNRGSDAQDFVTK
T17 sequence (Q5TCY1 13-320): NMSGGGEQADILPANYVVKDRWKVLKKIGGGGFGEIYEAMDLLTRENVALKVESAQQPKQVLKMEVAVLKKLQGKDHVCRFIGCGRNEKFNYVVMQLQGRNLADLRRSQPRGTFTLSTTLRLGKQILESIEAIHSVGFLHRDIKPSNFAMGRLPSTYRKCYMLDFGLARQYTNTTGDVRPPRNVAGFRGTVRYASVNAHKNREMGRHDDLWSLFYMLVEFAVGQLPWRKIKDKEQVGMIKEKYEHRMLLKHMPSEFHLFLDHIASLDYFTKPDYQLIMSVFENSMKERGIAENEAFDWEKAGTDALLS

CC(C)(O)C#Cc1ccc2[nH]c3c(c2c1)-c1nc(N)ncc1CCC3 [AMG28, reference compound]
percent of control (binding) at 1 µM (PRKX; read-out: PRKX % control at 1000nM): 4.3% | PIKFYVE % control at 1000nM / DiscoverX PoC value (PIKfyve): 0.4 % control | binding, percent of control at 1 µM (MAP3K2; read-out: MAP3K2 % control at 1000nM): 3.7% | percent of control (binding) at 1 µM ([1]; read-out: JAK2(JH1domain-catalytic) % control at 1000nM): 6.9% | MAP4K5 % control at 1000nM / DiscoverX PoC value (MAP4K5): 6.6 % control | binding, percent of control at 1 µM (PAK4; read-out: PAK4 % control at 1000nM): 5.7% | MEK4 (MKK4) % control at 1000nM / DiscoverX PoC value (MEK4): 8.6 % control | MYLK4 % control at 1000nM / DiscoverX PoC value (MYLK4): 2.8 % control | percent of control (binding) at 1 µM (MAP3K3; read-out: MAP3K3 % control at 1000nM): 7.2% | RIPK5 % control at 1000nM / DiscoverX PoC value (RIPK5): 2.2 % control

CC(C)(O)C#Cc1ccc2[nH]c3c(c2c1)-c1nc(N)ncc1CC3 [Compound 1]
CHEK2 (CHK2) % control at 1000nM / DiscoverX PoC value (CHEK2): 7.9 % control | CSNK1D % control at 1000nM / DiscoverX PoC value (CSNK1D): 3 % control | PRKCE % control at 1000nM (PRKCE): 3.1 % control | PIKFYVE % control at 1000nM / DiscoverX PoC value (PIKfyve): 0 % control | CSNK1E % control at 1000nM / DiscoverX PoC value (CSNK1E): 6.2 % control | CDK11 % control at 1000nM (CDK11): 4.7 % control | MEK4 (MKK4) % control at 1000nM / DiscoverX PoC value (MEK4): 7.3 % control | MYLK4 % control at 1000nM / DiscoverX PoC value (MYLK4): 9.4 % control | CDK8 % control at 1000nM (CDK8): 4.8 % control | ΔTm TTBK1 (TTBK1 kinase domain): 6.1 °C

CC(C)(O)C#Cc1ccc2[nH]cc(-c3ccnc(N)n3)c2c1 [Compound 3]
CSNK1D % control at 1000nM / DiscoverX PoC value (CSNK1D): 8.4 % control | PRKCE % control at 1000nM (PRKCE): 6.8 % control | AURKB % control at 1000nM (AURKB): 3.7 % control | PFCDPK1(P.falciparum) % control at 1000nM (PFCDPK1(P.falciparum)): 7.8 % control | NIK % control at 1000nM (NIK): 9.4 % control | PRKX % control at 1000nM (PRKX; 1 μM): 3.5 % control | GRK2 % control at 1000nM (GRK2): 9.1 % control | CDC2L1 % control at 1000nM (CDC2L1): 4.3 % control | MAP3K2 % control at 1000nM (MAP3K2; 1 μM): 0.8 % control | TYK2(JH1domain-catalytic) % control at 1000nM [2]: 6.3 % control | JAK2(JH1domain-catalytic) % control at 1000nM ([1]; 1 μM): 0.5 % control | TSSK3 % control at 1000nM / DiscoverX PoC value (TSSK3): 8.1 % control | PAK4 % control at 1000nM (PAK4; 1 μM): 8.3 % control | HIPK1 % control at 1000nM (HIPK1): 9.4 % control | BRAF(V600E) % control at 1000nM (BRAF(V600E)): 6.5 % control | SNARK % control at 1000nM (SNARK): 1.7 % control | PRKD2 % control at 1000nM (PRKD2): 8.3 % control | JAK3(JH1domain-catalytic) % control at 1000nM [3]: 1.8 % control | MAP3K3 % control at 1000nM (MAP3K3; 1 μM): 7.6 % control | CDC2L2 % control at 1000nM (CDC2L2): 6.6 % control | ΔTm TTBK1 (TTBK1 kinase domain): 6.9 °C
